Test results as given in patent publication US11724997B2, “Compounds and compositions for treating conditions associated with APJ receptor activity” (Annapurna Bio, Inc., priority 2018, dated 2023).

What follows are compounds tested against T1, APJ Receptor (Homo sapiens, UniProt P35414) (assay: APJ cAMP assay: inhibition of forskolin-stimulated cAMP, enzyme fragment complementation, in CHO-K1 cells stably expressing the APJ Receptor). Details: CHO-K1 cell line (DiscoverX) stably expressing APJ Receptor; EC80 forskolin; 30 minutes at 37° C.; read-out: APJ cAMP EC50 Potency range.
T1 sequence (P35414 1-380): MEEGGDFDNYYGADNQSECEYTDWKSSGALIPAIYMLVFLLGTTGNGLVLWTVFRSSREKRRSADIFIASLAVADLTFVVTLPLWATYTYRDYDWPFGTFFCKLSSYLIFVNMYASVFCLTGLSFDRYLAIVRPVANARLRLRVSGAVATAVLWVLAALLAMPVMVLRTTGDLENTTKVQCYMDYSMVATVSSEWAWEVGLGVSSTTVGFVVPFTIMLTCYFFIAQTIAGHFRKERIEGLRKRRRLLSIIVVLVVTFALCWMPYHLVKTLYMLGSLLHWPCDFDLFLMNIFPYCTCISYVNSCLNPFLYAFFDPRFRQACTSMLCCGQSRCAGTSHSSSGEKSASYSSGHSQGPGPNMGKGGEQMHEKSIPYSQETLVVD
Assay type: cell-based
From the text: Activation of APJ receptor is known to inhibit forskolin-stimulated cyclic AMP (cAMP) production in cells in a pertussis toxin-sensitive manner which indicates primary coupling to the GαI subunit of the G protein heterotrimeric complex. In addition to signaling through G protein and inhibition of cAMP, APJ receptor activation also results in β-arrestin recruitment, receptor internalization and activation of extracellular-regulated kinases (ERKs).
In order to optimize functional activity directed toward Gi coupling we utilized a CHO-K1 cell line developed by DiscoverX stably expressing the APJ Receptor. Cells expressing APJR receptor were plated in a 384-well microtiter plates and incubated overnight at 37° C. with 5% CO2 to allow the cells to attach and grow. Media was then aspirated from the cells and replaced with 15 uL 2:1 Hanks Balanced Salt Solution (HBSS)/10 mM Hepes. cAMP XS+ Ab reagent. Five microliters (5 uL) of previously generated compound sample stocks at 4× final concentration in assay buffer containing 4×EC80 forskolin were then added to the cells and allowed to incubate at 37° C. for 30 minutes.
After incubation the assay signal was generated using a technology termed enzyme fragment complementation (EFC). In EFC the enzyme B-galactosidase is split into two complementary portions (EA and ED). The fragment ED is fused to cAMP and in the assay format competes with endogenous cAMP for binding to a cAMP specific antibody. Activated B-Gal is formed when exogenous EA fragment binds to free ED-cAMP (not bound to cAMP specific antibody). Activated enzyme levels are detected through conversion of B-gal chemiluminescent substrate which generates a detectable luminescence signal and read on standard microtiter plate.
The methodology for detection of cAMP using EFC requires incubation with 20 uL of cAMP XS+ ED/CL lysis cocktail for one hour followed by incubation with 20 uL cAMP XS+ EA reagent for three hours at room temperature. Microplates were read following signal generation with a PerkinElmer Envision instrument utilizing chemiluminescent signal detection.
Compound activity was analyzed using CBIS data analysis suite (ChemInnovation, CA).
Percentage activity was calculated using the following formula: % Activity=[…]×(1−(mean RLU of test sample−mean RLU of Max control)/(mean RLU of vehicle control−mean RLU of Max control))
The biological activity of the exemplified compounds of this invention determined by the assay described above is shown in Table 1. The APJ cAMP EC50 potency ranges are as follows: A: EC50<1 nM; B: 1≤EC50<100 nM; and C: 100≤EC50<10,000 nM.

Row | SMILES | EC50 [nM]
1 | CCOc1cccc(-c2nnc(C(=O)NS(=O)(=O)Cc3ncn(C)n3)n2-c2c(OC)cccc2OC)n1 [Example 54, 4-(2,6-Dimethoxyphenyl)-5-(6-ethoxypyridin-2-yl)-N-(((1-methyl-1H-1,2,4-triazol-3-yl)methyl)sulfonyl)-4H-1,2,4-triazole-3-carboxamide] | < 1
2 | COc1cccc(OC)c1-n1c(C(=O)NS(=O)(=O)Cc2ncn(C)n2)nnc1-c1ccc(C)o1 [Example 55, 4-(2,6-Dimethoxyphenyl)-N-(((1-methyl-1H-1,2,4-triazol-3-yl)methyl)sulfonyl)-5-(5-methylfuran-2-yl)-4H-1,2,4-triazole-3-carboxamide] | < 1
3 | CCOc1cccc(-c2nnc(C(=O)NS(=O)(=O)Cc3cccnc3)n2-c2c(OC)cccc2OC)n1 [Example 56, 4-(2,6-Dimethoxyphenyl)-5-(6-ethoxypyridin-2-yl)-N-((pyridin-3-ylmethyl)sulfonyl)-4H-1,2,4-triazole-3-carboxamide] | < 1
4 | CCOc1cccc(-c2nnc(C(=O)NS(=O)(=O)C(C)Cc3ccccc3)n2-c2c(OC)cccc2OC)n1 (stereo not drawn) [Example 57, 4-(2,6-Dimethoxyphenyl)-5-(6-ethoxypyridin-2-yl)-N-((1-phenylpropan-2-yl)sulfonyl)-4H-1,2,4-triazole-3-carboxamide] | < 1
5 | COc1cccc(OC)c1-n1c(C(=O)NS(=O)(=O)Cc2ncccn2)nnc1-c1cccc(OC(F)(F)F)n1 [Example 58, 4-(2,6-Dimethoxyphenyl)-N-((pyrimidin-2-ylmethyl)sulfonyl)-5-(6-(trifluoromethoxy)pyridin-2-yl)-4H-1,2,4-triazole-3-carboxamide] | 1 to 100
6 | COc1cccc(OC)c1-n1c(C(=O)NS(=O)(=O)Cc2ncccn2)nnc1-c1cncc(C)c1 [Example 59, 4-(2,6-Dimethoxyphenyl)-5-(5-methylpyridin-3-yl)-N-((pyrimidin-2-ylmethyl)sulfonyl)-4H-1,2,4-triazole-3-carboxamide] | 100 to 10000
7 | COc1cccc(-c2nnc(C(=O)NS(=O)(=O)Cc3ccccc3)n2-c2c(Cl)cccc2Cl)n1 [Example 60, N-(benzylsulfonyl)-4-(2,6-dichlorophenyl)-5-(6-methoxypyridin-2-yl)-4H-1,2,4-triazole-3-carboxamide] | 100 to 10000
8 | COc1cccc(-c2nnc(C(=O)NS(=O)(=O)Cc3ccccc3)n2-c2c(F)cccc2F)n1 [Example 61, N-(benzylsulfonyl)-4-(2,6-difluorophenyl)-5-(6-methoxypyridin-2-yl)-4H-1,2,4-triazole-3-carboxamide] | 100 to 10000
9 | COc1cccc(-c2nnc(C(=O)NS(=O)(=O)Cc3ccccc3)n2-c2c(OC)cccc2C(F)(F)F)n1 [Example 62, N-(benzylsulfonyl)-4-(2-methoxy-6-(trifluoromethyl)phenyl)-5-(6-methoxypyridin-2-yl)-4H-1,2,4-triazole-3-carboxamide] | 1 to 100
10 | COc1cccc(-c2nnc(C(=O)NS(=O)(=O)Cc3ccccc3)n2-c2c(F)cccc2OC)n1 [Example 63, N-(benzylsulfonyl)-4-(2-fluoro-6-methoxyphenyl)-5-(6-methoxypyridin-2-yl)-4H-1,2,4-triazole-3-carboxamide] | 1 to 100
11 | COc1ccc(Cn2nc(C3CC3)nc2-c2nnc(C(=O)NS(=O)(=O)Cc3ccccc3)n2-c2c(OC)cccc2OC)cc1 [Example 64, N-(benzylsulfonyl)-5-cyclopropyl-4′-(2,6-dimethoxyphenyl)-2-(4-methoxybenzyl)-2H,4′H-[3,3′-bi(1,2,4-triazole)]-5′-carboxamide] | 100 to 10000
12 | COc1cccc(OC)c1-n1c(C(=O)NS(=O)(=O)Cc2ccccc2)nnc1-c1nc(C2CC2)n[nH]1 [Example 65, N-(benzylsulfonyl)-5-cyclopropyl-4′-(2,6-dimethoxyphenyl)-2H,4′H-[3,3′-bi(1,2,4-triazole)]-5′-carboxamide] | 100 to 10000
